For one assay, the target named is T1, V₁ receptor (Rattus norvegicus, UniProt P30560).
T1 construct: Using rat liver plasma membrane preparations; from tissue; host or cells: rat liver plasma membranes
Briefly: V₁ receptor binding assay ([³H]-Arg-vasopressin, rat liver plasma membrane preparations). The note with it: 37°C for 10 minutes. On the procedure:
Using rat liver plasma membrane preparations prepared according to Ichihara's method [cf: Akira Ichihara, J. Bio. Chem., 258, 9283 (1983)], the plasma membrane (50000dpm, 2x10⁻¹⁰ M) of [³H]-Arg-vasopressin and a test compound (60 µg, 10⁻⁸-10⁻⁴ M) are incubated at 37°C for 10 minutes in 100 mM Tris-HCl buffer (pH: 8.0, 250 µl) containing 5 mM MgCl₂, 1 mM EDTA and 0.1 % BSA. After incubation, the mixture is filtered three times using the glass filter (GF/F) so as to separate the membrane preparation combined with vasopressin and then washed with the buffer (5 ml). This glass filter is taken out and mixed with liquid scintillation cocktail. The amount of [³H]-vasopressin combined with the membrane is measured by liquid scintillation counter and the rate of the inhibitory effect of the test compound is estimated according to the following equation. Rate of the inhibitory effect (%) = 100 -(C1 - B1)/(C0 - B1)X 100 [formula] C¹: The amount of [³H]-vasopressin combined with the membrane in the presence of the test compound (in prescribed amount). C⁰: The amount of [³H]-vasopressin combined with the membrane in the absence of the test compound. B¹: The amount of [³H]-vasopressin combined with the membrane in the presence of the excess amount of vasopressin (10⁻⁶ M).
The results are expressed as IC₅₀ values, which is the concentration of the test compound required to achieve the inhibitory effect in the rate of 50 %.

In a further assay the target is T2, V₂ receptor (Rattus norvegicus, UniProt Q00788).
T2 construct: Using rat kidney plasma membrane preparations; from tissue; host or cells: rat kidney plasma membranes
T2 sequence (Q00788 whole entry): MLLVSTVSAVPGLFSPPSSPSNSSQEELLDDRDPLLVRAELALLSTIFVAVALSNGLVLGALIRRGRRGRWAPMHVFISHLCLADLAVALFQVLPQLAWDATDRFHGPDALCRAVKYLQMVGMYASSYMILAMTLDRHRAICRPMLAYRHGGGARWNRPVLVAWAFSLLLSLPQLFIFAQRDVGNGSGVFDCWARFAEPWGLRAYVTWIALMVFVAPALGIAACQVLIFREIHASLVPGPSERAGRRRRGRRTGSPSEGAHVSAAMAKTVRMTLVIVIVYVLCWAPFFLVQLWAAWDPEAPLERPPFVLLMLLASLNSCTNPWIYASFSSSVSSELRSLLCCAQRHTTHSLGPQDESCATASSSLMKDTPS
The experiment in a line: V₂ receptor binding assay ([³H]-Arg-vasopressin, rat kidney plasma membrane preparations). The note with it: 4°C for 3 hours. Summed up: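 Rat kidney plasma membranes incubated with [³H]-vasopressin and test compound, then filtered on GF/F glass filters and bound radioactivity counted by liquid scintillation.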

T1 sequence (P30560 whole entry): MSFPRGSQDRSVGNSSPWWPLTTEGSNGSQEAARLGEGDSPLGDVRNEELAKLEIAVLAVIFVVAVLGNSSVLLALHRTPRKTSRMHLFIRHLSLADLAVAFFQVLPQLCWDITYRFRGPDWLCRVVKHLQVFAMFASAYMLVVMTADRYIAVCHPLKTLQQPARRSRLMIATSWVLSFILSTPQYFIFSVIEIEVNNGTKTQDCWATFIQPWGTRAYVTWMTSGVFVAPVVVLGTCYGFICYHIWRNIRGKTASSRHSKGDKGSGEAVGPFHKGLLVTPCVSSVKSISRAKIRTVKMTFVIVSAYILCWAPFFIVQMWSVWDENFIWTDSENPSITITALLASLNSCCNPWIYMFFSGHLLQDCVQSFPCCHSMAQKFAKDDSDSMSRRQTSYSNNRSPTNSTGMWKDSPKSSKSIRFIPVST

Take `CN(CCO)CCOc1ccccc1C(=O)Nc1ccc(C(=O)N2CCCCc3ccccc32)cc1` [compound 125]: the IC50 at V₁ receptor is 91 nM; at V₂ receptor, 280 nM.

For the molecule `C#CCN(CC(=O)Nc1ccc(C(=O)N2CCCCc3ccccc32)cc1)c1ccccc1` [compound 130], the IC50 on V₁ receptor is 23 nM; on V₂ receptor it was 7 nM.

As to `Cc1ccccc1C(=O)Nc1ccc(C(=O)N2CCCC(O)c3ccccc32)cc1` (centres unmarked) [compound 143], the results for the IC50 on V₁ receptor and on V₂ receptor were 150 nM and 8 nM, respectively.

As to `COC1CCCN(C(=O)c2ccc(NC(=O)c3ccccc3C)cc2)c2ccccc21` (centres unmarked) [compound 147], the IC50 at V₁ receptor came to 280 nM; on V₂ receptor, 9 nM.

Regarding `Cc1ccccc1C(=O)Nc1ccc(C(=O)N2CCCC(OCCCCN(C)C)c3ccccc32)cc1` (centres unmarked) [compound 161], the results for the IC50 on V₁ receptor and on V₂ receptor were 140 nM and 9 nM, respectively.

`Cc1ccccc1C(=O)Nc1ccc(C(=O)N2CCCC(OCC(=O)N(C)C)c3ccccc32)cc1` (centres unmarked) [compound 163]: the IC50 at V₁ receptor was 220 nM; at V₂ receptor, 9 nM.

As for `NC(=O)COC1CCCN(C(=O)c2ccc(NC(=O)c3ccccc3Cl)cc2)c2ccccc21` (centres unmarked) [compound 164], the IC50 on V₁ receptor turned out to be 150 nM; at V₂ receptor it was 10 nM.

Take `Cc1ccccc1C(=O)Nc1ccc(C(=O)N2CCCC(OCCCN3C(=O)c4ccccc4C3=O)c3ccccc32)cc1` (centres unmarked) [compound 172]: the 50% inhibitory concentration (IC50) was 260 nM at V₁ receptor and 23 nM at V₂ receptor.

Take `Cc1ccccc1C(=O)Nc1ccc(C(=O)N2CCCC(OCCCN)c3ccccc32)cc1` (centres unmarked) [compound 173]: the results for the IC50 on V₁ receptor and on V₂ receptor were 150 nM and 8 nM, respectively.

With `CC(=O)NCCCOC1CCCN(C(=O)c2ccc(NC(=O)c3ccccc3C)cc2)c2ccccc21` (centres unmarked) [compound 174], the values for the IC50 on V₁ receptor and at V₂ receptor were 140 nM and 7 nM, respectively.

For the molecule `Cc1ccccc1C(=O)Nc1ccc(C(=O)N2CCCC(OC(=O)N(C)C)c3ccccc32)cc1` (centres unmarked) [compound 187], the IC50 amounted to 450 nM on V₁ receptor and 29 nM at V₂ receptor.

For `CN(C)C1CCCN(C(=O)c2ccc(NC(=O)c3ccccc3C(F)(F)F)cc2)c2ccccc21` (centres unmarked) [compound 188], the half-inhibitory concentration (IC50) on V₁ receptor stood at 470 nM; on V₂ receptor, 39 nM.

For the molecule `Cc1ccccc1C(=O)Nc1ccc(C(=O)N2CCSCc3ccccc32)cc1` [compound 192], the figures for the IC50 on V₁ receptor and at V₂ receptor were 54 nM and 11 nM, respectively.

`Cc1ccccc1C(=O)Nc1ccc(C(=O)N2CCC(=O)Cc3ccccc32)cc1` [compound 193]: the figures for the IC50 on V₁ receptor and at V₂ receptor were 170 nM and 36 nM, respectively.

With `CNC(=O)COC1CCCN(C(=O)c2ccc(NC(=O)c3ccccc3Cl)cc2)c2ccccc21` (centres unmarked) [compound 195], the IC50 at V₁ receptor came out at 170 nM; at V₂ receptor, 10 nM.

Regarding `CNC(=O)OC1CCCN(C(=O)c2ccc(NC(=O)c3ccccc3C)cc2)c2ccccc21` (centres unmarked) [compound 196], the half-maximal inhibitory concentration (IC50) on V₁ receptor turned out to be 400 nM; on V₂ receptor it was 13 nM.

Regarding `O=C(Nc1ccc(C(=O)N2CCC=Cc3ccccc32)cc1)c1ccccc1Cl` [compound 207], the IC50 was 160 nM at V₁ receptor and 45 nM at V₂ receptor.

In the case of `Cc1ccccc1C(=O)Nc1ccc(C(=O)N2CCCC(C)c3ccccc32)cc1` (centres unmarked) [compound 208], the half-inhibitory concentration (IC50) at V₁ receptor was 110 nM; at V₂ receptor, 7 nM.

For `C=C1CCCN(C(=O)c2ccc(NC(=O)c3ccccc3C)cc2)c2ccccc21` [compound 209], the IC50 at V₁ receptor was 74 nM; at V₂ receptor, 4 nM.

For `Cc1ccccc1C(=O)Nc1ccc(C(=O)N2CCC(O)Cc3ccccc32)cc1` (centres unmarked) [compound 214], the IC50 is 270 nM at V₁ receptor and 58 nM at V₂ receptor.

In the case of `Cc1ccccc1C(=O)Nc1ccc(C(=O)N2CCCC(CO)c3ccccc32)cc1` (centres unmarked) [compound 215], the IC50 at V₁ receptor turned out to be 130 nM; on V₂ receptor, 6 nM.

On to `CCN(CC(=O)Nc1ccc(C(=O)N2CCCC(O)c3ccccc32)c(Cl)c1)c1ccccc1` (centres unmarked) [compound 222], for which the 50% inhibitory concentration (IC50) on V₁ receptor stood at 96 nM; on V₂ receptor, 10 nM.

For the molecule `CC(=O)OCC1CCCN(C(=O)c2ccc(NC(=O)c3ccccc3C)cc2)c2ccccc21` (centres unmarked) [compound 231], the IC50 worked out at 160 nM on V₁ receptor and 7 nM on V₂ receptor.

With `Cc1ccccc1C(=O)Nc1ccc(C(=O)N2CCCC(COS(C)(=O)=O)c3ccccc32)cc1` (centres unmarked) [compound 235], the IC50 is 88 nM at V₁ receptor and 6 nM on V₂ receptor.

On to `COc1cc(NC(=O)c2ccccc2C)ccc1C(=O)N1CCCC(O)c2ccccc21` (centres unmarked) [compound 238], for which the IC50 came out at 390 nM at V₁ receptor and 20 nM on V₂ receptor.

Turning to `Cc1ccccc1C(=O)Nc1ccc(C(=O)N2CCCC(CN)c3ccccc32)cc1` (centres unmarked) [compound 244], the IC50 on V₁ receptor was 230 nM; on V₂ receptor it was 18 nM.

Turning to `Cc1ccccc1C(=O)Nc1ccc(C(=O)N2CCCC(CN=[N+]=[N-])c3ccccc32)cc1` (centres unmarked) [compound 250], the results for the IC50 on V₁ receptor and at V₂ receptor were 190 nM and 120 nM, respectively.

As for `O=C(Nc1ccc(C(=O)N2CCCC(NCc3ccccc3)c3ccccc32)cc1)c1ccccc1Cl` (centres unmarked) [compound 252], the half-maximal inhibitory concentration (IC50) at V₁ receptor came to 360 nM; on V₂ receptor, 63 nM.

With `CC(=O)NCC1CCCN(C(=O)c2ccc(NC(=O)c3ccccc3C)cc2)c2ccccc21` (centres unmarked) [compound 255], the results for the IC50 on V₁ receptor and at V₂ receptor were 46 nM and 5 nM, respectively.

As to `Cc1ccccc1C(=O)Nc1ccc(C(=O)N2CCC(C)C(O)c3ccccc32)cc1` (centres unmarked) [compound 256], the IC50 on V₁ receptor was 49 nM; at V₂ receptor it was 4 nM.

`Cc1ccccc1C(=O)Nc1ccc(C(=O)N2CCCC(N(C)CC(N)=O)c3ccccc32)cc1` (centres unmarked) [compound 266]: the results for the IC50 on V₁ receptor and on V₂ receptor were 290 nM and 13 nM, respectively.

For the molecule `Cc1ccccc1C(=O)Nc1ccc(C(=O)N2CCCC(CNC=O)c3ccccc32)cc1` (centres unmarked) [compound 269], the IC50 at V₁ receptor turned out to be 480 nM; on V₂ receptor, 3 nM.

In the case of `Cc1ccccc1C(=O)Nc1ccc(C(=O)N2CCCC(NC3CCN(Cc4ccccc4)CC3)c3ccccc32)cc1` (centres unmarked) [compound 274], the IC50 at V₁ receptor turned out to be 110 nM; at V₂ receptor, 24 nM.

Regarding `Cc1ccccc1C(=O)Nc1ccc(C(=O)N2CCCC(OC(=O)CN(C)C)c3ccccc32)cc1` (centres unmarked) [compound 275], the IC50 on V₁ receptor amounted to 180 nM; at V₂ receptor it was 18 nM.

As for `Cc1ccccc1C(=O)Nc1ccc(C(=O)N2CCCC(OCC(=O)N3CCN(C)CC3)c3ccccc32)cc1` (centres unmarked) [compound 277], the figures for the IC50 at V₁ receptor and on V₂ receptor were 230 nM and 16 nM, respectively.

In the case of `Cc1ccccc1C(=O)Nc1ccc(C(=O)N2CCCC(OCC(=O)N3CCOCC3)c3ccccc32)cc1` (centres unmarked) [compound 278], the IC50 on V₁ receptor was found to be 300 nM; at V₂ receptor it was 13 nM.

As to `Cc1ccccc1C(=O)Nc1ccc(C(=O)N2CCCC(OCC(=O)N3CCSCC3)c3ccccc32)cc1` (centres unmarked) [compound 279], the IC50 at V₁ receptor came out at 150 nM; on V₂ receptor it was 8 nM.

Consider `Cc1ccccc1C(=O)Nc1ccc(C(=O)N2CCCC(NC(=O)Nc3ccccc3)c3ccccc32)cc1` (centres unmarked) [compound 280], for which the IC50 came out at 470 nM at V₁ receptor and 45 nM on V₂ receptor.

Consider `Cc1ccccc1C(=O)Nc1ccc(C(=O)N2CCCC(OCC(=O)N3CC[S+]([O-])CC3)c3ccccc32)cc1` (centres unmarked) [compound 281], for which the IC50 at V₁ receptor amounted to 180 nM; on V₂ receptor, 11 nM.

With `Cc1ccccc1C(=O)Nc1ccc(C(=O)N2CCCC(OCC(=O)N3CCCC3C(N)=O)c3ccccc32)cc1` (centres unmarked) [compound 284], the figures for the IC50 on V₁ receptor and at V₂ receptor were 290 nM and 19 nM, respectively.

The IC50 is the concentration that inhibits the measured activity by half.

Values taken from patent EP0450097B1, “BENZOHETEROCYCLIC COMPOUNDS” (OTSUKA PHARMACEUTICAL CO., LTD., priority 1989, dated 1991).
